Calls of active or inactive are those of the source.
What was measured:
cells [1] = format: functional, cell-based
[2] = Trypanosoma cruzi growth suppression in host cells – NIH3T3 host cells, beta-gal luminescence, confirmation (AID 2044); format: functional, cell-based;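 note: intracellular parasites grown in NIH/3T3 mouse fibroblasts as host cells; luminescent beta-galactosidase reporter signal from transgenic T. cruzi replicating inside host cells; inhibitors lower the luminescence signal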
Albumin = Albumin (Bos taurus, UniProt P02769); experiment: Counterscreen for inhibitors of T-cell receptor (TCR)-CD3 interaction: Fluorescence-based biochemical high throughput dose response assay to identify inhibitors of T-cell receptor (TCR)-CD3 interaction using a TAMRA-labeled BSA probe.; format: functional
Sequence of Albumin (P02769 whole entry): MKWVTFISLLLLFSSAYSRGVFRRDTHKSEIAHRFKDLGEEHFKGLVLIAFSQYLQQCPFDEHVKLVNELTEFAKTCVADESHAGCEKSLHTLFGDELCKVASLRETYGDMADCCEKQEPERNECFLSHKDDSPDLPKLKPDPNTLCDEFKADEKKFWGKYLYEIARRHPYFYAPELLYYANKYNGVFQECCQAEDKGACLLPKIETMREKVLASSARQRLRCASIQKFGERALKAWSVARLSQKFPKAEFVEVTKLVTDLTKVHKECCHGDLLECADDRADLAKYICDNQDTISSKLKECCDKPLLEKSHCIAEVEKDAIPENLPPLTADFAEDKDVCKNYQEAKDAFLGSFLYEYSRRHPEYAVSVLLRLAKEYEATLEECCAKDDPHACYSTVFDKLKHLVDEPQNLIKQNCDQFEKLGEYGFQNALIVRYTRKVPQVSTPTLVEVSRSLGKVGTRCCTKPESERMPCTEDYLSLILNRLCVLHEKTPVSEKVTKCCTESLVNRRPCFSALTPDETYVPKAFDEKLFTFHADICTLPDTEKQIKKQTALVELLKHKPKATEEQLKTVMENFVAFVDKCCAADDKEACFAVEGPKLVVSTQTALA

[3] = HepG2 cell cytotoxicity, dose response, cytotoxicity control for non-replicating M. tuberculosis project (AID 489018); format: functional; settings: Mycobacterium tuberculosis
[4] = NIH3T3 cell viability loss – ATP luminescence, mouse fibroblasts, counter-screen, dose response (AID 2010); format: functional, cell-based;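 note: cells exposed to compound for about 90 hours before reading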
[5] = Vero E6 cell cytotoxicity, dose response, cytotoxicity control for non-replicating M. tuberculosis project, secondary assay (AID 492998); format: functional, VeroE6; settings: Vero C1008
cells [6] = format: functional, cell-based; remark: listed apart in the source
[7] = THP-1 cell cytotoxicity, dose response, cytotoxicity control for non-replicating M. tuberculosis project (AID 489025); format: functional
[8] = Luminescence Cell-Based Dose Retest to Confirm Inhibitors of Cancer Stem Cells. [Related pubchem assays (depositor defined):AID2717, AID2721]; format: functional; settings: Homo sapiens
H9c2 = experiment: cells; format: functional, cell-based; settings: Rattus norvegicus, H9c2, Myocardium;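 note: confirmatory concentration-response retest of ultra-high-throughput screening hits for modulation of myocardial damage; cell death induced by hydrogen peroxide oxidative stress; compound pretreatment for 60 min then peroxide exposure for 2 h; potency is for protecting the cells against peroxide damage rather than for killing them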
[9] = ATP-based viability loss in HEK293T cells – cell-based, CellTiter-Glo luminescence, cherry-picked samples, set 4, cytotoxicity control, dose response (AID 743441); format: functional; settings: HEK293
Paired box protein Pax-8 = Paired box protein Pax-8 (Homo sapiens, UniProt Q06710); experiment: PAX8 transcriptional activity inhibition in RMG-I – RMG-I cells, luciferase, cherry-pick, dose response (AID 687027); format: functional, cell-based;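 note: luciferase reporter driven by Pax8 target thyroperoxidase promoter measured by SteadyGlo luminescence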
Sequence of Paired box protein Pax-8 (Q06710 whole entry): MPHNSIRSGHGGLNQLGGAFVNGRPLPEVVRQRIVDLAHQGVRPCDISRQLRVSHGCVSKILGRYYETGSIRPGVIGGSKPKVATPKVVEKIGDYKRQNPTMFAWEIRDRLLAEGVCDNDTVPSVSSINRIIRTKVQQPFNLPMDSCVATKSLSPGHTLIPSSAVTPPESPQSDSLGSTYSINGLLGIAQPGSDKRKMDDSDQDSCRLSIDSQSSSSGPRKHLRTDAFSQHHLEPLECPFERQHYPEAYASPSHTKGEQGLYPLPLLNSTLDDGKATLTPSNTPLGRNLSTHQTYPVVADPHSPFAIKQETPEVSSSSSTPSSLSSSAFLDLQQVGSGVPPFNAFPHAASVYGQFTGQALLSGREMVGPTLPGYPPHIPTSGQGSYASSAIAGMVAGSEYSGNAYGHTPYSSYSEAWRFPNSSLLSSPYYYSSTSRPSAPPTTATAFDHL

[10] = toxicity toward HepG2 liver cells – cell-based, plate reader, cherry-pick, antagonist series, cytotoxicity control, dose response (AID 743416); format: functional
[11] = OVCAR-3 cell viability loss – plate reader, dry powder samples, PAX8 inhibitor project, dose response (AID 743044); format: functional, cell-based
[12] = A549 cell cytotoxicity, dose response, cytotoxicity control, plate reader, cherry-pick, antagonist series (AID 743412); format: functional, cell-based
[13] = blockade of melanocortin 4 receptor signaling – cell-based, plate reader, cherry pick, counter-screen for LGR2 antagonist project, dose response (AID 743444); format: functional;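 note: transfected HEK 293 cells stimulated with alpha-MSH peptide; potency of inhibitors of the alpha-MSH evoked signal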
[14] = IGROV1 cell killing – plate reader, dry powder samples, PAX8 inhibitor project, dose response (AID 743043); format: functional, cell-based; settings: IGROV-1
[15] = viability loss in HEK293 cells – cell-based, plate reader, cherry-picked samples, cytotoxicity control, dose response (AID 743446); format: functional
[16] = blockers of bursicon-stimulated LGR2 cAMP reporter – cell-based, HEK293, CRE-luciferase reporter, cherry pick, set 2, dose response (AID 743343); format: functional;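 note: transfected cells were stimulated with diluted bursicon conditioned medium after compound addition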
[17] = OVCAR8 cell viability loss – plate reader, dry powder samples, PAX8 project, dose response (AID 743197); format: functional, cell-based; settings: OVCAR-8
Vero = experiment: viability loss in Vero cells – cell-based, plate reader, cherry-pick samples, cytotoxicity control, dose response (AID 687020); format: functional; settings: Chlorocebus sabaeus
A549 = experiment: viability loss in A549 cells – cell-based, plate reader, cherry-pick samples, cytotoxicity control, dose response (AID 687028); format: functional; settings: Homo sapiens
Cryptococcus neoformans [18] = experiment: Cryptococcus growth inhibition by alamar blue – cell lysis, cherry-picks, replicate tests, mechanism study for C. neoformans antifungal project, dose response (AID 686999); format: functional, organism-based
Cryptococcus neoformans [19] = experiment: PubChem AID 686997; format: functional, organism-based; settings: Cryptococcus neoformans
[20] = Vibrio cholerae quorum sensing activators (AID 686977); format: functional
Genome polyprotein = Genome polyprotein (dengue virus type 2, UniProt P29990); experiment: flavivirus cap methylation enzyme inhibition – biochemical, confirmation dose response, primary screen (AID 588689); format: functional
Sequence of Genome polyprotein (P29990 2492-3391 limits assumed): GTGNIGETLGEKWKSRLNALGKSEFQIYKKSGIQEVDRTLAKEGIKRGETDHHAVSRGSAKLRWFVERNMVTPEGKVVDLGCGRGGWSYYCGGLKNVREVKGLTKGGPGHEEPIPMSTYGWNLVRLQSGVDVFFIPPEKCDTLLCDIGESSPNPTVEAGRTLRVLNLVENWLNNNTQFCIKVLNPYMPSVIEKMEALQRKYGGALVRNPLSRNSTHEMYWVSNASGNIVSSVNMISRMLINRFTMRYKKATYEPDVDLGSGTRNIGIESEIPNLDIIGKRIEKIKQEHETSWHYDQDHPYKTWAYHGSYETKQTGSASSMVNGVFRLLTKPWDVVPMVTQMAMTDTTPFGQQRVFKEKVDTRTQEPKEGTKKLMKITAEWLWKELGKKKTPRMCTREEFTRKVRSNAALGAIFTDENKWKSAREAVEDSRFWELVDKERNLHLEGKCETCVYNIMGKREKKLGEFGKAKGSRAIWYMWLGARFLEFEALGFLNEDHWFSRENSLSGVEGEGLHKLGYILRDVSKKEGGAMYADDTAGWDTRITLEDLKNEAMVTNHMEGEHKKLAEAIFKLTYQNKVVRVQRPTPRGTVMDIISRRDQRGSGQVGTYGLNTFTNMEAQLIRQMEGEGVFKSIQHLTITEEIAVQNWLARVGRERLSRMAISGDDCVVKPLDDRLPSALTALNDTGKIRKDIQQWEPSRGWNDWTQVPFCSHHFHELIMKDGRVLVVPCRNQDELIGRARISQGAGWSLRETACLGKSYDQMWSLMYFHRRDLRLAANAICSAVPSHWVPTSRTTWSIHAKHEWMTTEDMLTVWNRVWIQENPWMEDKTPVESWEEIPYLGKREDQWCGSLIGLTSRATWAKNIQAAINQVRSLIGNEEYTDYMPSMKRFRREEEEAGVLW

[21] = biological target: Induced myeloid leukemia cell differentiation protein Mcl-1 (Homo sapiens, UniProt Q07820); format: functional
Sequence of Induced myeloid leukemia cell differentiation protein Mcl-1 (Q07820 whole entry): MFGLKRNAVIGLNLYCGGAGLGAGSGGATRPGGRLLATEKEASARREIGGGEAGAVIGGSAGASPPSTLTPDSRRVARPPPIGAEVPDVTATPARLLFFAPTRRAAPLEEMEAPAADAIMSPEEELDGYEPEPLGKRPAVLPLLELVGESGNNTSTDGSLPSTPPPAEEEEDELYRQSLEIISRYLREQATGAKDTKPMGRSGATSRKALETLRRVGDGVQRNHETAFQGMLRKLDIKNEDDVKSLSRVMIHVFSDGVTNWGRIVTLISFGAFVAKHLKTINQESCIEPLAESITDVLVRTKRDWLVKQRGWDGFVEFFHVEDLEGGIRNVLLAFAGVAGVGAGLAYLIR

[22] = biological target: T1, Sentrin-specific protease 8 (Homo sapiens, UniProt Q96LD8); format: functional
T1 sequence (Q96LD8 whole entry): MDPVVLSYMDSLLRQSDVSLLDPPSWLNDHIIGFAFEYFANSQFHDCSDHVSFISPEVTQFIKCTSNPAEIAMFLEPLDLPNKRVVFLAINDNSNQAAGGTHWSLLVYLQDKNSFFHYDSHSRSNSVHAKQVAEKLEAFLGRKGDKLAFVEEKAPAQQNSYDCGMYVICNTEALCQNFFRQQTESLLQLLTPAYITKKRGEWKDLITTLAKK

[23] = biological target: T2, Mannose-6-phosphate isomerase (Homo sapiens, UniProt P34949); experiment: MPI inhibition at elevated mannose 6-phosphate – biochemical, fluorescence intensity, high mannose 6-phosphate, primary screen (AID 1220)
T2 sequence (P34949 whole entry): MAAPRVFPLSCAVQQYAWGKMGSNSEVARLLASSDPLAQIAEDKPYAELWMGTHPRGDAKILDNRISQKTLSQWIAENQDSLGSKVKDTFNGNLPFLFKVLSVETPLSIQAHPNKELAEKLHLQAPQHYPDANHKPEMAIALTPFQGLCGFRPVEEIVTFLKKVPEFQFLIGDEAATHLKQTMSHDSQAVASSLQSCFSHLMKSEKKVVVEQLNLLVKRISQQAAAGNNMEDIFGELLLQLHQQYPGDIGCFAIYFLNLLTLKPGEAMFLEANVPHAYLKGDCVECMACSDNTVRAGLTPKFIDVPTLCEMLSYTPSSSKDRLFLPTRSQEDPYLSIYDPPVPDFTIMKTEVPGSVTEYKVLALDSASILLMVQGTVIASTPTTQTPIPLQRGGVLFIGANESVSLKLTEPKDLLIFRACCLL

[24] = biological target: T1, Sentrin-specific protease 8; format: functional; remark: listed apart in the source
Protein RecA = biological target: T3, Protein RecA (Mycobacterium tuberculosis, UniProt P9WHJ3); experiment: Fluorescence Cell-Free Homogeneous Dose Retest to Identify Inhibitors of RecA-Intein Splicing Activity. [Related pubchem assays (depositor defined):AID2097, AID2223, AID489010, AID492950]; format: functional
T3 sequence (P9WHJ3 whole entry): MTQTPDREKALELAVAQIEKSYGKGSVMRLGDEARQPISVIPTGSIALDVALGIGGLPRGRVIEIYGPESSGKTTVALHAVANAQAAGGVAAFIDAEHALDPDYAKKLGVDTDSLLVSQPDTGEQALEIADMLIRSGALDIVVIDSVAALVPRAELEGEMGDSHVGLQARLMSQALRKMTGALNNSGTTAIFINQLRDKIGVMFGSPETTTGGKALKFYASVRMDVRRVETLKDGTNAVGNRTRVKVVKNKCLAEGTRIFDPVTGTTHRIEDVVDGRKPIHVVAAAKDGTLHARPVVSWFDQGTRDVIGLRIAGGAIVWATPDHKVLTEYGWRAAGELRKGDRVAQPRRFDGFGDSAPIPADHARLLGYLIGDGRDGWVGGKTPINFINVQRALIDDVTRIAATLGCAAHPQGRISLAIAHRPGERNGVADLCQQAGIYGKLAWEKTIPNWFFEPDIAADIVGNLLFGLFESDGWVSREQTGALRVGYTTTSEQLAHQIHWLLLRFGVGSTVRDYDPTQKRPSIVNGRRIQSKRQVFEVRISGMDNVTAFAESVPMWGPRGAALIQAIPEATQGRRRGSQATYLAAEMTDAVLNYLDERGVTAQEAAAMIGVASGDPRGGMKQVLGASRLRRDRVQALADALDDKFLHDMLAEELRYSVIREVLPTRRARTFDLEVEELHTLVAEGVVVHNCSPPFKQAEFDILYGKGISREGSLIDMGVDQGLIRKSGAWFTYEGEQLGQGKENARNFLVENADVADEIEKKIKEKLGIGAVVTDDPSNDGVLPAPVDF

Caspase-3 = biological target: T4, Caspase-3 (Homo sapiens, UniProt P42574); experiment: Dose-response confirmation of uHTS inhibitor hits of Sentrin-Specific Protease 8 in a Caspase-3 Fluorescence assay.; format: functional
T4 sequence (P42574 whole entry): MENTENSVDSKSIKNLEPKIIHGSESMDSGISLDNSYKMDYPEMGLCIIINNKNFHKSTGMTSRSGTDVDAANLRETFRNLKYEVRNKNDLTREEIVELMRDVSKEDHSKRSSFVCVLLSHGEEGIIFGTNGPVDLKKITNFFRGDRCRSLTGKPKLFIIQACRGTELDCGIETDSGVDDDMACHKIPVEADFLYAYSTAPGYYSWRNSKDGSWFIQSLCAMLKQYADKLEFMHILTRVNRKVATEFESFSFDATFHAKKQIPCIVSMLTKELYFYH

[25] = biological target: T5, Replicative DNA helicase DnaB (Mycobacterium tuberculosis, UniProt P9WMR3); experiment: DnaB intein splicing inhibitors, dose response, biochemical, cell-free fluorescence (AID 449749); format: functional
T5 sequence (P9WMR3 whole entry): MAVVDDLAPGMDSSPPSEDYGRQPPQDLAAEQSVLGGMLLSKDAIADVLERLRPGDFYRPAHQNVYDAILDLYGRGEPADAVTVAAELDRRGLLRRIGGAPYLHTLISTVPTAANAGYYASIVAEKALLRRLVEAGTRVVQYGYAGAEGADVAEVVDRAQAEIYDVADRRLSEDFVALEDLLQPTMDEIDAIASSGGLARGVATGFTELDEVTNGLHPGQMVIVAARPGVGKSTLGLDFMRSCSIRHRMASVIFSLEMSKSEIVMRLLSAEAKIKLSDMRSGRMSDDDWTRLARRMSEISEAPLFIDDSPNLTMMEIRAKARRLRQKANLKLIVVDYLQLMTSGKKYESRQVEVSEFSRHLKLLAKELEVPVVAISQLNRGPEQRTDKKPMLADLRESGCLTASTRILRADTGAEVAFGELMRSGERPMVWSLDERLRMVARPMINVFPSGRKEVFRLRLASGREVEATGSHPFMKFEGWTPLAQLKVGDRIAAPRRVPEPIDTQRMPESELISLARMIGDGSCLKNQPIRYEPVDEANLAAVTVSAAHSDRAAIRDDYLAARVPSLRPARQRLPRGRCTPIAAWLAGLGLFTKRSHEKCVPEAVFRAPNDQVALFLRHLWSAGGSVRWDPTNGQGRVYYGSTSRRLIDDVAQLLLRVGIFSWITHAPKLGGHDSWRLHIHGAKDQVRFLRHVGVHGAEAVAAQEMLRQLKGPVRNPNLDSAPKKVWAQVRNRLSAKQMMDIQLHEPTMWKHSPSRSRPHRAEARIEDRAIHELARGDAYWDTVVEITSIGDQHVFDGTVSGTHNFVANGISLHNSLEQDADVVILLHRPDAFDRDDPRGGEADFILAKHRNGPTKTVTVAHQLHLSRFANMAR

[26] = inhibitors of EBV LMP1 NF-kappaB signaling – cell-based, luciferase reporter, luminescence, dry powder, set 2, dose response (AID 624376); format: functional
[27] = cytotoxicity in HEK293 background cells – cell-based, dry powder, set 2, counter-screen for EBV LMP1 inhibitor project, dose response (AID 624374); format: functional
[28] = general mammalian cell viability loss – inhibitor set, cherry-pick, set 2, cytotoxicity control for miR-122 modulator project, dose response (AID 720697); format: functional, cell-based
[29] = biological target: Fructose-bisphosphate aldolase (Mycobacterium tuberculosis, UniProt P9WQA3); experiment: Fluorescence-based biochemical high throughput dose response assay for inhibitors of the fructose-bisphosphate aldolase (FBA) of M. tuberculosis.; format: functional
Sequence of Fructose-bisphosphate aldolase (P9WQA3 whole entry): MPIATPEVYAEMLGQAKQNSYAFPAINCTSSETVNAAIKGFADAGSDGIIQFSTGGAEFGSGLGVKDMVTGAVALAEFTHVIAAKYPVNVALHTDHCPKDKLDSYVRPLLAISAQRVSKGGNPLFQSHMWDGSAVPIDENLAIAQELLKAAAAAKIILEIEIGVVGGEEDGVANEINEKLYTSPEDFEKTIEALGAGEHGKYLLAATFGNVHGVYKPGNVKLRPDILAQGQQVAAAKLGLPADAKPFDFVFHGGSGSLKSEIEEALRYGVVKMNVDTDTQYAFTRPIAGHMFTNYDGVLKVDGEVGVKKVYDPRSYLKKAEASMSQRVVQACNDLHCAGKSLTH

For O=C(N/N=C/c1cc(Br)cc(Br)c1O)c1cccc(N2CCCC2=O)c1, the EC50 (cells [1]) was > 350 µM (not active), the EC50 [2] was 1.55 µM (active) and the IC50 (Albumin) was > 94.1 µM (inactive). The CC50 [3] was > 20 µM (active), the EC50 [4] was > 60 µM (not active) and the CC50 [5] was 15 µM (active). The EC50 (cells [6]) was 138 µM (active) and the CC50 [7] was 15.2 µM (active).
For COc1ccc(-n2cc(-c3ccccc3)c3c(N4CCOCC4)ncnc32)cc1, the AC50 [8] was 3.78 µM (active), the IC50 (H9c2) was > 79 µM (inactive) and the AC50 [9] was 48.5 µM (active).
For COc1cccc(-c2ccc3c(c2)[C@H]2[C@H](CCN2C(=O)c2ccccc2F)[C@H](CO)N3C)c1, the AC50 (Paired box protein Pax-8) was 8.72 µM (active), the AC50 [10] was 24 µM (active) and the AC50 [11] was 22.7 µM (active). For the same compound, the AC50 [12] was 13.8 µM (active), the AC50 [13] was 7.07 µM (active) and the AC50 [14] was 57.8 µM (active). The AC50 [15] was 20.5 µM (active), the AC50 [16] was 5.53 µM (active) and the AC50 [17] was 25.3 µM (active).
In the case of COc1ccc(S(=O)(=O)N(CC(C)C)CC(C)C)c2cccnc12, the AC50 (Vero) is reported as 39 µM (active) and the AC50 (A549) is reported as 19.5 µM (active).
With COC(=O)C1=C(C)N(Cc2ccc(Cl)cc2)C(=S)NC1c1ccccc1 (configuration not stated) the AC50 (Cryptococcus neoformans [18]) was 36.1 µM (active) and the AC50 (Cryptococcus neoformans [19]) was 25.9 µM (active).
In the case of O=C(Nc1ccc(F)cc1F)c1sccc1SCc1cccc(C(F)(F)F)c1, the IC50 [20] is reported as 77.9 µM (active).
For Nc1scc2c(C(=O)N/N=C/c3ccc(Cl)cc3)nn(-c3ccccc3)c(=O)c12, the IC50 (Genome polyprotein) was 70.6 µM (active), the IC50 [21] was 1.95 µM (active) and the IC50 [22] was 0.5 µM (active). For the same compound, the IC50 [23] was > 50 µM (not active), the IC50 [24] was 0.577 µM (active) and the EC50 (Protein RecA) was 5.71 µM (active). For the same compound, the IC50 (Caspase-3) was 4.47 µM (active) and the AC50 [25] was 7.02 µM (active).
Work on COc1cccc(-c2cccc(-c3nc(C(=O)NCC(F)(F)F)cc4c3[C@H](CCO)N([S@@+]([O-])C(C)(C)C)C4)c2)c1 yielded an AbsAC35 [26] of 56.19 µM and an AbsAC35 [27] of 43.43 µM.
In the case of O=C1NC(=O)N(CCC2=CCCCC2)C(=O)/C1=C\c1cccs1, the AC50 [28] is reported as 1.06 µM (active).
For CC1=CC2=NCC(O)CN2C=C1 (configuration not stated), the IC50 [29] was 5.11 µM (active).

— ChEMBL document CHEMBL1201862, “PubChem BioAssay data set” (2004)
